Measurements as given in patent US20130085133A1, “ANTI-VIRAL TREATMENT AND ASSAY TO SCREENFOR ANTI-VIRAL AGENT” (Sourthern Research Institute Office of Commercialization …, priority 2010, published 2013).

Assays:
[1] = tested on: respiratory syncytial virus (RSV) strain Long; test: microbe, parasite or virus in culture; details: human respiratory syncytial virus, HEp-2, 144 h
[2] = cytotoxicity assay (percent viability of HEp-2 cells, Cell Titer-Glo); details: human, HEp-2 cells

EC50 [1] | SMILES | CC50 at 6 days [2]
10.9 µg/mL | Cn1cnnc1SCC(=O)N1c2ccccc2Sc2ccc(C(F)(F)F)cc21 [AB00139215] | > 25 µg/mL
15.2 µg/mL | Oc1cccc2ccc(N3CCOCC3)nc12 [AB00275625] | > 25 µg/mL
20.5 µg/mL | O=C(c1ccc(O)cc1O)c1ccc(O)cc1O [AB00275918] | > 25 µg/mL
17.6 µg/mL | Cc1cnc(NC(=O)c2ccc(Cl)cc2Cl)s1 [AB00276221] | > 25 µg/mL
12.2 µg/mL | O=C(N1CCCC1)N1c2ccccc2CCc2ccccc21 [AB00276381] | > 25 µg/mL
20.7 µg/mL | CC(=O)CCc1c(C)nc2ccc(Br)cc2c1S [AB00279343] | > 25 µg/mL
14.2 µg/mL | CC(=O)CCc1c(O)nc2ccccc2c1C [AB00279389] | > 25 µg/mL
18.9 µg/mL | Cc1nc(N)sc1-c1csc(Nc2ccccn2)n1 [AB00280085] | > 25 µg/mL
12 µg/mL | O=C(Nc1ccc(Nc2ccccc2)cc1)c1ccccc1F [AB00282102] | > 25 µg/mL
24.2 µg/mL | CCOc1ccccc1OCCOCCOc1cccc2cccnc12 [AB00289145] | > 25 µg/mL
23.2 µg/mL | COc1ccccc1OCC(=O)Nc1ccc(Br)cc1C(=O)O [AB00290004] | > 25 µg/mL
7.64 µg/mL | COc1cc(-c2nnc(SCc3cc(Cl)cc(Cl)c3)o2)cc(OC)c1OC [AB00292171] | > 25 µg/mL

Continued, molecule first:

SMILES | EC50 [1] | CC50 at 6 days [2]
Oc1ccc(O)cc1 [AB00053361] | 47.9 µM | > 50 µM
Cc1ccc(-c2nc3cc(N)ccc3o2)cc1Br [AB00076694] | 16.4 µg/mL | > 25 µg/mL
NC(=O)c1ccccc1NC(=O)CSc1nc2ccccc2o1 [AB00132114] | 20.7 µg/mL | > 25 µg/mL
O=c1[nH]c(=O)n(Cc2ccc([N+](=O)[O-])cc2)cc1F [AB00173190] | 21 µM | > 50 µM
Cc1ccc(C)n1-c1ccc(C(=O)O)cc1 [AB00275199] | 13 µg/mL | > 25 µg/mL
O=C(Nc1cccc(C(F)(F)F)c1)c1ccccc1Cl [AB00276634] | 15.8 µg/mL | > 25 µg/mL
O=c1[nH]cnc2sc3c(c12)CCCCC3 [AB00276706] | 19.6 µg/mL | > 25 µg/mL
Cc1ccc2c(ccc3nc(C)ccc32)n1 [AB00278348] | 12.6 µg/mL | > 25 µg/mL
CCOC(=O)c1ccc(NC(=O)CN(c2ccccc2Br)S(C)(=O)=O)cc1 [AB00282821] | 14.5 µg/mL | > 25 µg/mL
O=c1cnnc(N/N=C/c2ccccc2Br)[nH]1 [AB00283422] | 15.8 µg/mL | > 25 µg/mL
Cc1cc(C)cc(OCC(O)CNC(C)c2ccccc2)c1 (centres unmarked) [AB00283699] | 12.9 µg/mL | > 25 µg/mL
Cc1ccccc1C(=O)Nc1sc2c(c1C(=O)N1CCN(Cc3ccccc3)CC1)CCCCC2 [AB00284323] | 17.5 µg/mL | > 25 µg/mL
Cc1ccc2nc(SCCC#N)nc(C)c2c1 [AB00284847] | 22.5 µg/mL | > 25 µg/mL
O=C(O)c1ccc(-c2cccc(Cl)c2Cl)o1 [AB00287600] | 12.7 µg/mL | > 25 µg/mL
COc1ccc(-c2cn3cccnc3n2)cc1 [AB00288908] | 21.6 µg/mL | 
CNC(=O)Nc1ccccc1C(=O)Nc1ccc(C)cc1 [AB00290142] | 19.4 µg/mL | > 25 µg/mL
CCCCSc1nc(=O)c(C(c2ccccc2)c2ccccc2)c(O)[nH]1 [AB00291408] | 24.2 µg/mL | > 25 µg/mL
CCOc1ccc(NC(=O)CSC2=C(C#N)C(c3ccncc3)C(C(=O)Nc3ccccc3)=C(C)N2)cc1 (centres unmarked) [AB00292155] | 15.7 µg/mL | > 25 µg/mL
COc1ccc(NC(=O)CN2c3cccc4cccc(c34)S2(=O)=O)c(OC)c1 [AB00293237] | 10.3 µg/mL | > 25 µg/mL
CC(=O)c1ccc2c3c(ccc(O)c13)CC2 [AB00293238] | 11.4 µg/mL | > 25 µg/mL
Cc1cc(C)cc(NC(=O)c2cccc(NC(=O)c3ccco3)c2)c1 [AB00293678] | 18.6 µg/mL | > 25 µg/mL
